Source: ChEMBL document CHEMBL5137038, “Novel quinoline-based derivatives: A new class of PDE4B inhibitors for adjuvant-induced arthritis” (Eur J Med Chem, 2022)

How the values were obtained:
RAW264.7 [1] = test: Inhibition of LPS induced NO production in mouse RAW264.7 cells at 30 uM preincubated for 1 hr followed by LPS addition and measured after 24 hrs by Griess reagent based assay relative to control; type: functional; conditions: time 25 hrs
[2] = molecular target: 3',5'-cyclic-AMP phosphodiesterase 4B (Homo sapiens, UniProt Q07343); test: Inhibition of PDE4B (unknown origin) using […] as substrate incubated for 1 hr by PDElight HTS cAMP phosphodiesterase assay
RAW264.7 [3] = test: Inhibition of LPS induced NO production in mouse RAW264.7 cells preincubated for 1 hr followed by LPS addition and measured after 24 hrs by Griess reagent based assay; type: functional, cell-based

Sequence of 3',5'-cyclic-AMP phosphodiesterase 4B (Q07343 whole entry): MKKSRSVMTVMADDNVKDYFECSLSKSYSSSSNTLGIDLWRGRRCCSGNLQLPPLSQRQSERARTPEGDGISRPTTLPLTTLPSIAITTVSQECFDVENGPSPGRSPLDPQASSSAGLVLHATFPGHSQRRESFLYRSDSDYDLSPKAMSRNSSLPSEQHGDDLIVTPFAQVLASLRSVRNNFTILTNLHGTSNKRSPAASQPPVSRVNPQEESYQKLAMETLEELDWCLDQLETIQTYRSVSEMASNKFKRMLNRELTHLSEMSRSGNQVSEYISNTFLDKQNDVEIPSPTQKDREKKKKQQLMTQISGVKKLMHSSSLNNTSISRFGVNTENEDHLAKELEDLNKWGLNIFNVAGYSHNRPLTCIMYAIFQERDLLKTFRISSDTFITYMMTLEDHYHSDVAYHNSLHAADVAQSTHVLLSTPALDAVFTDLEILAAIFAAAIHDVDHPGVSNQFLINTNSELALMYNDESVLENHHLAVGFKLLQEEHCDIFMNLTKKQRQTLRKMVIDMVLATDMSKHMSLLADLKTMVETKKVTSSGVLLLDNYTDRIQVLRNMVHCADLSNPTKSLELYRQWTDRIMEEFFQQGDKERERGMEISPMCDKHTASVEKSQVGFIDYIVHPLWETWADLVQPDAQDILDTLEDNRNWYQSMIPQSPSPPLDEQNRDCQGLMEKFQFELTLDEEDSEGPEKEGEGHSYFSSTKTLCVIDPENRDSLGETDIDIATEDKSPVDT

SMILES	inhibition at 30 µM (RAW264.7 [1])	also measured
O=S(=O)(Nc1cccc(NS(=O)(=O)c2cccc3cccnc23)c1)c1ccc(F)cc1	19%	–
O=S(=O)(Nc1cccc(NS(=O)(=O)c2cccc3cccnc23)c1)c1cccc(F)c1	17.8%	–
CC(C)c1cc(C(C)C)c(S(=O)(=O)Nc2cccc(NS(=O)(=O)c3cccc4cccnc34)c2)c(C(C)C)c1	–	IC50 [2]: 0.94 µM
COc1ccc(Br)cc1S(=O)(=O)Nc1cccc(NS(=O)(=O)c2cccc3cccnc23)c1	16.3%	–
O=S(=O)(Nc1cccc(NS(=O)(=O)c2cccc3cccnc23)c1)c1ccc(C(F)(F)F)cc1	40.6%	–
O=S(=O)(Nc1cccc(NS(=O)(=O)c2cccc3cccnc23)c1)c1ccccc1C(F)(F)F	22%	–
O=S(=O)(Nc1cccc(NS(=O)(=O)c2cccc3cccnc23)c1)c1ccccc1Cl	12.1%	–
O=S(=O)(Nc1cccc(NS(=O)(=O)c2cccc3cccnc23)c1)c1cccc(Br)c1	31.1%	–
O=S(=O)(Nc1cccc(NS(=O)(=O)c2cccc3cccnc23)c1)c1ccc(Br)cc1	20.2%	–
O=S(=O)(Nc1cccc(NS(=O)(=O)c2cccc3cccnc23)c1)c1ccc(I)cc1	39.5%	–
Cc1ccc(S(=O)(=O)Nc2cccc(NS(=O)(=O)c3cccc4cccnc34)c2)cc1	11.4%	–
CC(=O)Nc1ccc(S(=O)(=O)Nc2cccc(NS(=O)(=O)c3cccc4cccnc34)c2)cc1	7.74%	–
O=S(=O)(Nc1cccc(NS(=O)(=O)c2cccc3cccnc23)c1)c1cc(Cl)cc(Cl)c1	29%	–
O=S(=O)(Nc1cccc(NS(=O)(=O)c2cccc3cccnc23)c1)c1c(F)cccc1F	23.6%	–
COc1ccc(S(=O)(=O)Nc2cccc(NS(=O)(=O)c3cccc4cccnc34)c2)c(OC)c1	12.8%	–
O=[N+]([O-])c1cccc(S(=O)(=O)Nc2cccc(NS(=O)(=O)c3cccc4cccnc34)c2)c1	28%	–
O=S(=O)(Nc1cccc(NS(=O)(=O)c2cccc3cccnc23)c1)c1ccc(Cl)cc1	6.7%	–
O=S(=O)(Nc1cccc(NS(=O)(=O)c2cccc3cccnc23)c1)c1ccccc1F	30.2%	–
O=S(=O)(Nc1cccc(NS(=O)(=O)c2cccc3cccnc23)c1)c1ccc(OC(F)(F)F)cc1	31.6%	–
COc1ccc2c(c1)c(CC(=O)O)c(C)n2C(=O)c1ccc(Cl)cc1 [INDOMETHACIN]	42.5%	IC50 (RAW264.7 [3]): 34.3 µM
N#Cc1ccc(S(=O)(=O)Nc2cccc(NS(=O)(=O)c3cccc4cccnc34)c2)cc1	25.2%	–
CC(C)c1ccc(S(=O)(=O)Nc2cccc(NS(=O)(=O)c3cccc4cccnc34)c2)cc1	41.5%	–
O=S(=O)(Nc1cccc(NS(=O)(=O)c2cccc3cccnc23)c1)c1c(Cl)cccc1Cl	24.7%	–
O=S(=O)(Nc1cccc(NS(=O)(=O)c2cccc3cccnc23)c1)c1cccc(C(F)(F)F)c1	23.9%	–
COc1ccc(S(=O)(=O)Nc2cccc(NS(=O)(=O)c3cccc4cccnc34)c2)cc1OC	32.3%	–
O=S(=O)(Nc1cccc(NS(=O)(=O)c2cccc3cccnc23)c1)c1ccccc1	23.8%	–
O=S(=O)(Nc1cccc(NS(=O)(=O)c2cccc3cccnc23)c1)c1ccccc1Br	23.6%	–
CC(C)(C)c1ccc(S(=O)(=O)Nc2cccc(NS(=O)(=O)c3cccc4cccnc34)c2)cc1	39.3%	–
O=S(=O)(Nc1cccc(NS(=O)(=O)c2cccc3cccnc23)c1)c1ccccc1OC(F)(F)F	13.2%	–
